Substitutions are numbered along the chain they refer to. Like-named read-outs stand apart in the source and are kept apart here.
What was measured:
[1] = target: T1, Z. mobilis Tgt ("wild type" Tgt = Tgt(Tyr106Phe)) (Zymomonas mobilis, UniProt P28720, Y106F/C158V/A232S/V233G); assay: X-ray crystal structure of complex; format: binding
T1 construct: recombinant from pET9d-ZM-Y106F in E. coli BL21(DE3)/pLysS, purified; homodimer; all variants including "wild type" carry Tyr106Phe
T1 sequence (P28720 2-386 Y106F/C158V/A232S/V233G): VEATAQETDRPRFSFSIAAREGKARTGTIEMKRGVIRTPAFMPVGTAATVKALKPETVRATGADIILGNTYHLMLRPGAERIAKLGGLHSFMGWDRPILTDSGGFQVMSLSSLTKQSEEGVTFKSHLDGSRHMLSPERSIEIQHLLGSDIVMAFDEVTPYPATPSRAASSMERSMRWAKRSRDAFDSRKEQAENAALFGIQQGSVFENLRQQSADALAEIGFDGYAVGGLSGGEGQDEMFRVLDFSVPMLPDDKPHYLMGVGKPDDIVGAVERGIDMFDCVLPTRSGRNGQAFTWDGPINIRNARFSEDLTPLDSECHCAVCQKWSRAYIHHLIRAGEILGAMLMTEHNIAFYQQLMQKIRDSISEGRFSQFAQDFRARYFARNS

[2] = target: T2, Z. mobilis Tgt ("wild type" Tgt = Tgt(Tyr106Phe)) (Zymomonas mobilis, UniProt P28720, Y106F); assay: inhibition of [[…]-3H]-guanine incorporation into tRNA(Tyr); format: biochemical; details: read-out: K ic
T2 construct: recombinant from pET9d-ZM-Y106F in E. coli BL21(DE3)/pLysS, purified; homodimer; all variants including "wild type" carry Tyr106Phe
Target sequence in this assay (P28720 2-386 Y106F/C158V): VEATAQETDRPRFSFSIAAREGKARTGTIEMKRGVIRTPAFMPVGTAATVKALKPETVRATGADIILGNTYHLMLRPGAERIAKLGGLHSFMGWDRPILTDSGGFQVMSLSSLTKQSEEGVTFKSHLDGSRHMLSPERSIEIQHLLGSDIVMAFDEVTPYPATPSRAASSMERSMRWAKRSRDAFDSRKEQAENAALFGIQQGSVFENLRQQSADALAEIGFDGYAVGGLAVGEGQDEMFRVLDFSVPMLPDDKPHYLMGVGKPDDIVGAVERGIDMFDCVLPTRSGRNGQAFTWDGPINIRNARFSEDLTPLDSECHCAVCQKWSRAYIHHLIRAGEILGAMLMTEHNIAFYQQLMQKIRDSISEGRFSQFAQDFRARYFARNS

[3] = target: T2, Z. mobilis Tgt ("wild type" Tgt = Tgt(Tyr106Phe)); assay: as above; format: biochemical; details: read-out: K ic; remark: listed apart in the source
Target sequence in this assay (P28720 2-386 Y106F): as the sequence (P28720 2-386 Y106F/C158V) above, with V157C counted along it

[4] = target: T3, Z. mobilis Tgt ("wild type" Tgt = Tgt(Tyr106Phe)) (Zymomonas mobilis, UniProt P28720, C158V/V233G/Y106F); assay: as above; format: biochemical; details: read-out: K ic
T3 construct: recombinant from pET9d-ZM-Y106F in E. coli BL21(DE3)/pLysS, purified; homodimer; all variants including "wild type" carry Tyr106Phe
T3 sequence (P28720 2-386 Y106F/C158V/V233G): T1 sequence (P28720 2-386 Y106F/C158V/A232S/V233G) with S231A

[5] = target: T4, Z. mobilis Tgt ("wild type" Tgt = Tgt(Tyr106Phe)) (Zymomonas mobilis, UniProt P28720, V233G/Y106F); assay: as above; format: biochemical; details: read-out: K ic
T4 construct: recombinant from pET9d-ZM-Y106F in E. coli BL21(DE3)/pLysS, purified; homodimer; all variants including "wild type" carry Tyr106Phe
T4 sequence (P28720 2-386 Y106F/V233G): T1 sequence (P28720 2-386 Y106F/C158V/A232S/V233G) with V157C, S231A

Row | Compound | X-ray crystal structure of complex ([1]; soaking) | Ki [2] | Ki [3] | X-ray crystal structure of complex ([1]; cocrystallisation) | Ki [4] | Ki [5]
1 | NCc1c[nH]c2nc(N)[nH]c(=O)c12 [preQ1, 7-aminomethyl-7-deazaguanine] | in complex with preQ1 and in complex with queuine |  |  |  |  | 
2 | Nc1nc2[nH]cc(CN[C@H]3C=C[C@H](O)[C@@H]3O)c2c(=O)[nH]1 [queuine, 7-(((4,5-cis-dihydroxy-2-cyclopenten-1-yl)amino)methyl)-7-deazaguanine] |  | 3.8 ± 0.5 µM | 3.8 ± 0.6 µM | in complex with preQ1 and in complex with queuine | 8.9 ± 1.2 µM | 3.1 ± 0.2 µM

From article PMC3660597, “Investigation of Specificity Determinants in Bacterial tRNA-Guanine Transglycosylase Reveals Queuine, the Substrate of Its Eucaryotic Counterpart, as Inhibitor” (PLoS ONE, 2013)
